“Also recorded” adds a separate entry of the source.
What was measured:
[1] = system: 4-hydroxy-2-alkylquinoline (HAQ) production; type: cell-based, Pseudomonas aeruginosa
[2] = system: pqsA-LacZ (MvfR-dependent pqs operon transcription); experiment: pqsA-LacZ expression (β-galactosidase activity); type: cell-based, Pseudomonas aeruginosa
Method: To assess the effect of this compound on bacteria, we analyzed the production of HAQs in the presence of 2AA using LC/MS. The bacteria were propagated in the presence of 3 mM 2AA, culture media was collected at different time points, and the HHQ, PQS and HQNO production was measured in the supernatant. […] Since 2AA addition to the P. aeruginosa culture inhibits the production of HHQ and PQS, we assessed the transcription from the pqs operon using a pqsA-LacZ fusion.
To further, understand the mechanism of inhibition of the pqs operon by 2AA, we carried out competition assays of PQS and HHQ with 2AA. The expression of pqsA-LacZ in pqsApqsH double mutants was assessed. Bacteria were grown to an OD600 of 1.0 and HHQ and PQS were added either alone or with 2AA. LacZ expression was assayed at different stages of the growth, using standard protocols.
To determine whether HHQ activates MvfR expression, we generated a PA14pqsH/pqsA double mutant that lacks all HAQ production, and assessed pqsA-lacZ activity in the absence and presence of HHQ and PQS.

Which results are given for `CC(=O)c1ccccc1N` [2AA, 2′-aminoacetophenone]?
HHQ production [1]: no HHQ was produced; HQNO accumulation [1]: higher accumulation of HQNO; PQS production [1]: only a limited quantity of PQS was produced; production of 3,4-dihydroxy-2-heptylquinoline (PQS) [1]: decreased; production of 4-hydroxy-2-heptylquinoline (HHQ) [1]: decreased; production of 4-hydroxy-2-heptylquinoline N-oxide (HQNO) [1]: enhanced; LacZ expression from pqsA-LacZ fusion ([2]; PA14, 3 mM 2AA (FIG. 14)): significant reduction; pqsA expression (pqsA-LacZ) in response to HHQ ([2]; pqsApqsH double mutant, 3 mM 2AA with 1 mg/L HHQ): blocks pqsA expression; pqsA expression (pqsA-LacZ) in response to PQS ([2]; pqsApqsH double mutant, 3 mM 2AA with 10 μl PQS): blocks pqsA expression; also recorded: inhibits pqsA expression at later time points

Source: patent US20130209515A1, “ANTI-INFECTIVE AND IMMUNOMODULATORY COMPOUNDS” (priority 2005, published 2013)
